# Patent publication US6858399B2, “Test for oxidative stress using cell suspensions” (priority 1998, dated 2005)
# B1: CAT: catalase (protein, UniProt P00432 2-527, looked up)
# Catalase: ADNRDPASDQMKHWKEQRAAQKPDVLTTGGGNPVGDKLNSLTVGPRGPLLVQDVVFTDEMAHFDRERIPERVVHAKGAGAFGYFEVTHDITRYSKAKVFEHIGKRTPIAVRFSTVAGESGSADTVRDPRGFAVKFYTEDGNWDLVGNNTPIFFIRDALLFPSFIHSQKRNPQTHLKDPDMVWDFWSLRPESLHQVSFLFSDRGIPDGHRHMNGYGSHTFKLVNANGEAVYCKFHYKTDQGIKNLSVEDAARLAHEDPDYGLRDLFNAIATGNYPSWTLYIQVMTFSEAEIFPFNPFDLTKVWPHGDYPLIPVGKLVLNRNPVNYFAEVEQLAFDPSNMPPGIEPSPDKMLQGRLFAYPDTHRHRLGPNYLQIPVNCPYRARVANYQRDGPMCMMDNQGGAPNYYPNSFSAPEHQPSALEHRTHFSGDVQRFNSANDDNVTQVRTFYLKVLNEEQRKRLCENIAGHLKDAQLFIQKKAVKNFSDVHPEYGSRIQALLDKYNEEKPKNAVHTYVQHGSHLSAREKANL
# How the values were obtained:
# human liver cells = test: PC biosynthesis of human liver cells (labeled choline incorporation into PC); format: cell-based; details: for Alteration in cellular PC biosynthesis: human liver cells incubated 90 minutes, 100 mM ethanol or 1 mM acetaminophen
# Procedure: (§1) PC biosynthesis in cultured cells: Aliquots (0.01 ml) of DMSO and water or DMSO and water containing various agents were added to medium with 2-hour monolayers of cells. After the appropriate agent-incubation period, a 0.02 ml aliquot of [^3H]-choline (0.2 μCi and 15 pmoles of choline]) was added to Waymouth 752/1 {1.25 ml} media. Incubations were stopped after 90 minutes by addition of 2 ml of methanol containing 1% 1N HCl. Cells were removed from the culture dishes by scraping with TEFLON™-coated spatula and placed in glass test tubes. (Lamb, et al., Hepatology 19: 174 (1994))
# (§2) PC extraction procedure: Two ml of chloroform and 0.5 ml of water were added to each sample. Tubes were vortexed and centrifuged for 5 minutes to clear the upper and lower phases. The upper phase was aspirated and the lower phase washed by adding 2 ml of wash solution containing 50% methanol, 45% water and 5% 7.4% KCl. The samples were vortexed and centrifuged 5 minutes to clear the upper and lower phases. The upper phase was aspirated and the lower phase was washed again in 2 ml wash solution. After the phases were cleared by centrifugation, the lower phase was carefully removed, placed in a glass test tube, dried, solubilized in scintillation fluid and counted in a Beckman beta counter. Agent-induced alterations in the incorporation of labeled choline into PC was used as a measure of changes in cellular PC biosynthesis.
# PC biosynthesis in isolated cells: Aliquots (0.75 ml) of Waymouth 752/1 media were placed in glass test tubes. Aliquots (0.01) of DMSO and water or DMSO and water containing various test agents were added to the tubes along with 0.02 ml [^3H]-choline [0.2 μCi and 15 pmoles choline]. Incubations were started by adding 0.5 ml aliquotes of cells suspended in Waymouth 752/1 media to the test tubes and placing the tubes in a shaking water bath at 37° C. Incubations were stopped after the appropriate incubation period (2-90 minutes) by addition of 2 ml of methanol containing 1% 1N HCl. Labeled PC was extracted by methods described above for cultured cells. […]
# rat liver cells = test: PC biosynthesis of rat liver cells (labeled choline incorporation into PC); format: cell-based; details: for Alteration in cellular PC biosynthesis: rat liver cells incubated 90 minutes, 100 mM ethanol or 1 mM acetaminophen
# cultured hepatocytes = test: PC biosynthesis in primary cultures of adult rat hepatocytes, 72 h incubation; format: cell-based; details: for Effect on the ethanol/acetaminophen-induced decrease in cellular PC biosynthesis / Change in cellular PC biosynthesis: 72 hours; for Effect on the ethanol/acetaminophen-induced decrease in cellular PC biosynthesis: co-incubation with 100 mM ethanol or 1 mM acetaminophen; for Change in cellular PC biosynthesis: 100 mM ethanol, 1 mM acetaminophen
# Procedure: Male sprague Dawley rats (Zivic-Miller) weighing 200 to 350 grams were treated with a 50 mg/kg dose of phenobarbital (ip) for 3 days prior to perfusion. During this 3 day period, the animals were also given water ad libitum containing 0.1% sodium phenobarbital. The animal was anesthetized with ether under a fume hood, then transferred to the surgical table with the abdomen exposed. The belly was shaved and cleansed with 70% ethanol and Clinidine. The abdominal skin was removed with scissors and forceps. An incision was made along the base of the abdomen and the renal artery was tied off.
# After the hepatic vein was cannulated with a 16 gauge catheter, the liver was washed with a balanced salt solution containing EDTA and Tricine. The hepatic artery was cannulated with a 16 gauge catheter. After 5 minutes of reverse flow perfusion was practiced to facilitate the wash cycle. After the blood is washed from the liver, the color of the liver changes from deep red to a brownish color.
# The liver was then infused with Collagenase solution (112.5 mg/300 ml of Waymouth 752/1 media) bubbled with 5% CO2. After 5 minutes, reverse flow of Collagenase into the liver was accomplished, followed by reverse to normal flow after 5 minutes. Normal flow was continued until liver tissue was breaking down and ready for collection. Complete liver wash and perfusion should take about 30 minutes.
# The perfused liver was collected with a strainer and transferred to an Erlenmeyer flask containing 50 ml of original Collagenase solution. The liver was minced using a gyratory water bath at 37° C. and allowed to swirl for no longer than 15 minutes. The solution was then filtered through a sterile gauze into centrifuge tubes and spun in a table top centrifuge for 5 minutes at 1000 rpm. (70×g). Aspirate media and suspended cells were placed in Waymouth 752/1 media containing 20% isodensity Percol and were then centrifuged for 4 minutes at 70×g. Cells were washed three times and resuspended in Waymouth 752/1 media. Samples of 0.5 ml were plated on 35 mm collagen-coated plastic culture dishes containing 0.75 ml of supplemented Waymouth 752/1 media.
# as §1, §2
# cultured astrocyte = test: Cultured astrocyte PC biosynthesis; format: cell-based; details: for PC biosynthesis, Percent control of + SEM: cultured astrocytes, 100 mM ethanol, 1 mM APAP, 1 mM THC, 1 mM 4-MP, alone or combined
# human red blood cells = test: PC biosynthesis of human RBC's; format: cell-based; details: for PC biosynthesis percent of control ± SEM: 30 minutes incubation, 100 mM ethanol, 1 mM APAP, 1 mM THC, 10 mM allyl alcohol, 1 mM cocaine, 1 mM BTM, with and without 4-MP
# cultured rat liver cells = test: PC biosynthesis of cultured rat liver cells from 3 and 20 month-old rats, 24 h; format: cell-based; details: 1 mM APAP, 100 mM ETOH, mean ± SEM of nine values; for PC biosynthesis, 3 Month: cells from 3 month-old male rats; for PC biosynthesis, 20 Month: cells from 20 month-old male rats
# Procedure: as §1, §2
# rat red blood cells = test: Rat RBC PC biosynthesis; format: cell-based; details: rat RBC's, 10 minutes incubation
# [1] = test system: cells isolated from rat lung; test: PC biosynthesis in cells isolated from rat lung; format: cell-based; details: 1 mM APAP, 30 minutes
# [2] = test system: cells isolated from rat intestine; test: PC biosynthesis in cells isolated from rat intestine; format: cell-based; details: 1 mM APAP, 30 minutes
# erythrocytes [3] = test: PC biosynthesis in cells isolated from rat blood (erythrocytes); format: cell-based; details: 1 mM APAP, 30 minutes
# Procedure: Preparation of red cell fractions: Rat or human blood was placed in Sorval tubes and, centrifuged at 3000 rpm for 10 minutes under refrigeration. The supernate was removed and the pellet of RBC's resuspended in PBS at 4 times the volume of the supernate. This may be frozen in 2 ml aliquots at −70° C.
# brain cell fractions = test: PC biosynthesis of brain cell fractions; format: cell-based; details: brain cell fractions incubated 30 minutes; agent concentration (100 mM ethanol, 1 mM others)
# Procedure: as §2
# PC biosynthesis in isolated cells: Aliquots (0.75 ml) of Waymouth 752/1 media were placed in glass test tubes. Aliquots (0.01) of DMSO and water or DMSO and water containing various test agents were added to the tubes along with 0.02 ml [^3H]-choline [0.2 μCi and 15 pmoles choline]. Incubations were started by adding 0.5 ml aliquotes of cells suspended in Waymouth 752/1 media to the test tubes and placing the tubes in a shaking water bath at 37° C. Incubations were stopped after the appropriate incubation period (2-90 minutes) by addition of 2 ml of methanol containing 1% 1N HCl. Labeled PC was extracted by methods described above for cultured cells. Agent-induced increases in the incorporation of labeled choline into PC were used to measure increases in cellular PC biosynthesis.
# Cells were isolated from brain homogenates according to the methods described in the methodology section under “PC biosynthesis in isolated cells”.
# erythrocytes [4] = details: Ferrali, et al, Biochem Pharm. 38, 1819-1825 (1989); cited from earlier work
# cultured liver cells = test: PC biosynthesis of cultured liver cells incubated 24 and 72 hours with and without vitamin E phosphate; format: cell-based; details: 24 and 72 hours with and without 50 μM vitamin E phosphate
# Procedure: After the appropriate agent-incubation period, a 0.02 ml aliquot of [^3H]-choline (0.2 μCi and 15 pmoles of choline]) was added to Waymouth 752/1 {1.25 ml} media. […] Cells were removed from the culture dishes by scraping with TEFLON™-coated spatula and placed in glass test tubes. (Lamb, et al., Hepatology 19: 174 (1994))
# Alterations in PC biosynthesis were studied using cultured liver cells incubated 24 and 72 hours with and without 50 μM vitamin E phosphate (VEP).
molecule,measurement,setting,value
"Cc1cn[nH]c1 [4-MP, 4-methylpyrazole]",Effect on ethanol and acetaminophen-induced increases in cellular PC biosynthesis,"human liver cells; 1 mM 4-methylpyrazole, 90 minutes, with 100 mM ethanol or 1 mM acetaminophen",significantly decreases
same,Effect on ethanol-induced and acetaminophen-induced increases in cellular biosynthesis,"rat liver cells; 4-methylpyrazole, 90 minutes, with 100 mM ethanol or 1 mM acetaminophen",significantly reduced
same,Effect on the ethanol/acetaminophen-induced decrease in cellular PC biosynthesis,cultured hepatocytes,reduced
same,Effect on agent-induced increase in PC biosynthesis,"cultured astrocyte; 1 mM 4-MP with ethanol, APAP, THC or combinations",Å values without 4-MP are significantly increased (p < 0.05) above controls. 4-MP significantly reduced (p < 0.05) the agent-induced increase in PC biosynthesis.
same,Effect on drug-induced increases in PC biosynthesis,"human red blood cells; 30 minutes, 4-MP added to each agent",significantly (p<0.05) reduces
"CC(=O)Nc1ccc(O)cc1 [APAP, acetaminophen]",Alteration in cellular PC biosynthesis,human liver cells,significantly (p<0.05) increase
same,Alteration in cellular PC biosynthesis,rat liver cells,significantly (p<0.05) increased
same,Change in cellular PC biosynthesis,cultured hepatocytes,significant decrease
same,"PC biosynthesis, 3 Month",cultured rat liver cells,137 ± 11% of control
same,"PC biosynthesis, 20 Month",cultured rat liver cells,38 ± 2% of control
same,"PC biosynthesis, Percent control of + SEM",cultured astrocyte,159 ± 15 Percent control
same,PC biosynthesis % of Control ± SEM,rat red blood cells,655 ± 26 % of Control
same,PC biosynthesis percent of control ± SEM,human red blood cells,512 ± 27% of control
same,"PC biosynthesis percent of control ± SEM, lung",[1],471 ± 38% of control
same,"PC biosynthesis percent of control ± SEM, intestine",[2],287 ± 13% of control
same,"PC biosynthesis percent of control ± SEM, erythrocytes",erythrocytes [3],236 ± 13% of control
"ClC(Cl)(Cl)Br [BTM, bromotrichloromethane]","Agent-induced alterations in PC biosynthesis, Percent control of + SEM",brain cell fractions,194 ± 25 Percent control
same,PC biosynthesis % of Control ± SEM,rat red blood cells,533 ± 29 % of Control
same,PC biosynthesis percent of control ± SEM,human red blood cells,728 ± 3% of control
O=S(=O)([O-])[O-].[Fe+2] [FeSO4],"Agent-induced alterations in PC biosynthesis, Percent control of + SEM",brain cell fractions,226 ± 8 Percent control
"CCCCCc1cc(O)c2c(c1)OC(C)(C)[C@@H]1CCC(C)=C[C@@H]21 [THC, Δ-9-tetrahydrocannabinol]","Agent-induced alterations in PC biosynthesis, Percent control of + SEM",brain cell fractions,293 ± 21 Percent control
same,"PC biosynthesis, Percent control of + SEM",cultured astrocyte,201 ± 11 Percent control
same,PC biosynthesis % of Control ± SEM,rat red blood cells,1142 ± 65 % of Control
same,PC biosynthesis percent of control ± SEM,human red blood cells,433 ± 30% of control
"Cc1c(C)c2c(c(C)c1OC(=O)CCC(=O)O)CC[C@@](C)(CCC[C@H](C)CCC[C@H](C)CCCC(C)C)O2 [VES, vitamin E succinate]",Effect on the ethanol/acetaminophen-induced decrease in cellular PC biosynthesis,cultured hepatocytes,reduced
C=CC=O [acreolein],Adverse effects on erythrocytes,erythrocytes [4],deleterious effects on the cells
C=CC(=O)O [acrylic acid],Adverse effects on erythrocytes,erythrocytes [4],could not demonstrate the adverse effects
C=CCO [allyl alcohol],PC biosynthesis % of Control ± SEM,rat red blood cells,1315 ± 99 % of Control
same,PC biosynthesis percent of control ± SEM,human red blood cells,377 ± 3% of control
same,Adverse effects on erythrocytes,erythrocytes [4],could not demonstrate the adverse effects
COC(=O)[C@H]1[C@@H](OC(=O)c2ccccc2)C[C@@H]2CC[C@H]1N2C [cocaine],PC biosynthesis % of Control ± SEM,rat red blood cells,458 ± 7 % of Control
same,PC biosynthesis percent of control ± SEM,human red blood cells,292 ± 10% of control
CCO [ethanol],Alteration in cellular PC biosynthesis,human liver cells,significantly (p<0.05) increase
same,Alteration in cellular PC biosynthesis,rat liver cells,significantly (p<0.05) increased
same,PC biosynthesis,"cultured hepatocytes; 72 h, 100 mM ETOH, 1 mM APAP, 0.5 mM 4-MP, 200 units SOD, 800 units CAT, 2 mM DEF, 0.025 mM 20:4, 0.25 mM 16:0, 6-9 experimental values",39 ± 2% of control
same,Change in cellular PC biosynthesis,cultured hepatocytes,significant decrease
same,"PC biosynthesis, 3 Month",cultured rat liver cells,147 ± 13% of control
same,"PC biosynthesis, 20 Month",cultured rat liver cells,59 ± 1% of control
same,"Agent-induced alterations in PC biosynthesis, Percent control of + SEM",brain cell fractions,173 ± 8 Percent control
same,"PC biosynthesis, Percent control of + SEM",cultured astrocyte,199 ± 14 Percent control
same,PC biosynthesis % of Control ± SEM,rat red blood cells,374 ± 19 % of Control
same,PC biosynthesis percent of control ± SEM,human red blood cells,222 ± 9% of control
Cc1c(C)c2c(c(C)c1OP(=O)(O)O)CCC(C)(CCCC(C)CCCC(C)CCCC(C)C)O2 (stereo not drawn) [vitamin E phosphate],Alterations in PC biosynthesis,cultured liver cells,incubation time-dependent decreases in PC biosynthesis unless vitamin E phosphate was added
iron,PC biosynthesis % of Control ± SEM,rat red blood cells,919 ± 73 % of Control
B1,Effect on the ethanol/acetaminophen-induced decrease in cellular PC biosynthesis,cultured hepatocytes,reduced
